Measured values: patent USRE38330E1, “Preventing and reversing advanced glycosylation endproducts” (Alteon Inc., priority 1995, dated 2003)

Test system: fixed protein (gelatin, i.e., collagen) surface
Assay: Surface browning experiment on gelatin/paper disks in glucose-6-phosphate
Settings: 100 mM glucose-6-phosphate, one week at 50° C., final concentration of 0.04% chlorhexidine (Peridex)
Description: To further study the ability of inhibitors of nonenzymatic browning to prevent the discoloration of protein on a surface, such as that which occurs on the tooth surface, the following surface browning experiment is performed. As a substitute for a pellicle-covered tooth surface, unexposed and developed photographic paper is used to provide a fixed protein (gelatin, i.e., collagen) surface on a paper backing. […] Glucose-6-phosphate is a sugar capable of participating in nonenzymatic browning at a more rapid rate than glucose. In addition to the glucose-6-phosphate, chlorhexidine and/or a compound of Formula I are included. After incubation, the gelatin/paper disks are rinsed with water, observed for brown color, and photographed.

SMILES: [H]/N=C(\N/C(=N/[H])NCCCCCCNC(=N)NC(=N)Nc1ccc(Cl)cc1)Nc1ccc(Cl)cc1 [chlorhexidine]
- brown color of gelatin/paper disks: significant browning
